Several values for one entry are separate records, joined by “and”; a condition that tells them apart may be missing. Equal entries are not always repeated. Where two headings read alike, the source gives them in different places.
How the values were obtained:
[1] = test system: Escherichia coli (ATCC 25922); details: peptide alone; peptide concentration required to inhibit growth by 20% (so in the source)
Outline: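 Broth microdilution in MH broth with ⅔-fold serial compound dilutions; overnight E. coli culture inoculated at 5×10^5 CFU/mL. After 18 h at 37 °C, growth read as OD600, with viability (%) calculated relative to positive and negative control wells.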

E. coli ATCC 25922 [2] = experiment: Antibiotic interaction assay (Wimley), 2/3 broth microdilution: MIC alone, MIC of combination, FICI; format: cell-based; details: for FICI of peptide with colistin: labelled peptide + colistin; for FICI of peptide with linezolid: labelled peptide + linezolid
Outline: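 Broth microdilution in MH broth with ⅔-fold serial dilutions: each compound alone and a half-and-half peptide/drug mix, inoculum 5×10^5 CFU/mL. Incubation at 37° C for 18 h, growth read as OD600. Synergy expressed as FICI.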

Gram-positive bacteria [3] = details: previously examined peptide; cited from earlier work
[4] = test system: Staphylococcus aureus (ATCC 29213); experiment: MIC of peptide against S. aureus; format: cell-based; details: peptide alone
Experimental: The N-terminus of the peptides were acetylated and the C-terminus was amidated. The kinked structure can rapidly reduce the alpha-helical content, thereby greatly reducing the toxicity of the peptide against host cells. In addition, because of the potential to show specificity for the Gram-negative bacterial membrane, Pro-mutants were prepared by site-directed mutagenesis. Using the prepared peptides, their MIC for the Gram-negative bacterium E. coli and the Gram-positive bacterium S. aureus and their hemolytic activity for host cells were examined (Table 1).

E. coli [5] = experiment: NPN fluorescence, penetration into outer membrane; format: cell-based; details: FIG. 5
Experimental: Penetration into the microbial outer membrane was measured by the fluorescence intensity of NPN-treated E. coli (λex=355 nm, λem=405 nm). An E. coli suspension (8×10^7 cells/mL) was centrifuged at 13000 rpm at 25° C. for 10 minutes, and suspended in 5 mM HEPES buffer (pH 7.2). NPN was added to the E. coli suspension to a final NPN concentration of 5 μM. The fluorescence intensity of the E. coli suspension was measured using the FL-55 fluorometer. The peptide together with 5 μM NPN was added to the E. coli suspension.

E. coli [6] = experiment: SYTOX Green membrane penetrability by FACS; format: cell-based; details: FIG. 6
Experimental: In the second experiment, whether the peptides would have the ability to disrupt both the outer wall and inner wall of bacteria was examined. To this end, the fluorescent dye Sytox Green capable of specifically staining DNA was used, and penetrability into the microbial membrane was evaluated from the average fluorescence intensity of E. coli treated with SYTOX Green. An E. coli suspension (2×10^8 cells/mL) was incubated with the three peptides in the presence of SYTOX Green (2.5 μM) for 10 minutes, respectively. Penetrability was quantified by a (fluorescence activated cell sorter (FACS). The average fluorescence intensity of 1×10^4 gate cells was measured. Melittin (control) is a pore-forming peptide that disrupts the microbial cell membrane.

E. coli NDm-1 = experiment: Confocal microscopy of TAMRA-conjugated peptide; format: cell-based; details: 2.5 μM peptide, 30 minutes, FIG. 8
Experimental: E. coli NDm-1 was diluted when it reached OD600=0.5. The microorganism was treated with 2.5 μM of the peptide in a 37° C. incubator for 30 minutes. LK-L12P was used as a positive control.

E. coli ATCC 25922 [7] = details: for MIC (μM) against E. coli ATCC 25922, Peptide alone: bacterial growth <10% of control
E. coli [8] = experiment: FACS of TAMRA-labeled peptides entering Gram-negative bacteria; format: cell-based
MDA MB231 cells = experiment: FACS penetration of eukaryotic cells; format: cell-based; details: 5 microM
Excerpt: (§1) […]. […] […].

Gram-positive bacteria [9] = experiment: Entry of peptide into Gram-positive bacteria; format: cell-based; details: data not shown
Excerpt: as §1

RAGLQFPVGRVHRLLRK [buforin 5-20]
MIC [μM] Against E. coli [1]: 20 µM | FICI of peptide with colistin (E. coli ATCC 25922 [2]): 0.5 | FICI of peptide with linezolid (E. coli ATCC 25922 [2]): 0.7 | activity against Gram-positive bacteria (Gram-positive bacteria [3]): no activity against Gram-positive bacteria

KLLKLLKKPLKLLK [KL-L9P]
MIC [μM] Against E. coli [1]: 20 µM and 12 µM | MIC [μM] Against S. aureus [4]: >40 µM | lowering of MIC in combination KL-L9P/colistin/linezolid versus alone (E. coli ATCC 25922 [2]): 12 fold | MIC when the three compounds were used alone (E. coli ATCC 25922 [2]; Example 7): 13 µM | FICI of peptide with resveratrol (E. coli ATCC 25922 [2]; FIG. 10): 0.2 | MIC (μM) against E. coli ATCC, combination of two compounds (E. coli ATCC 25922 [2]; KL-L9P + (S)-ibuprofen, concentration of labelled component): 2.0 µM | MIC (μM) against E. coli ATCC, combination of two compounds (E. coli ATCC 25922 [2]; KL-L9P + cloxacillin, concentration of labelled component): 3.0 µM | MIC (μM) against E. coli ATCC, combination of 3 compounds (E. coli ATCC 25922 [2]; KL-L9P + colistin + (S)-ibuprofen, concentration of labelled component): 1.1 µM | MIC (μM) against E. coli ATCC, combination of 3 compounds (E. coli ATCC 25922 [2]; KL-L9P + colistin + cloxacillin, concentration of labelled component): 1.6 µM | MIC (μM) against E. coli ATCC, combination of 3 compounds (E. coli ATCC 25922 [2]; KL-L9P + colistin + curcumin, concentration of labelled component): 1.1 µM | MIC (μM) against E. coli ATCC, combination of 3 compounds (E. coli ATCC 25922 [2]; KL-L9P + colistin + linezolid, concentration of labelled component): 1.1 µM | MIC (μM) against E. coli ATCC, combination of 3 compounds (E. coli ATCC 25922 [2]; KL-L9P + colistin + simvastatin, concentration of labelled component): 0.79 µM | MIC (μM) against E. coli ATCC, combination of two compounds (E. coli ATCC 25922 [2]; KL-L9P + colistin, concentration of labelled component): 2.4 µM | MIC (μM) against E. coli ATCC, combination of two compounds (E. coli ATCC 25922 [2]; KL-L9P + curcumin, concentration of labelled component): 1.9 µM | MIC (μM) against E. coli ATCC, combination of two compounds (E. coli ATCC 25922 [2]; KL-L9P + linezolid, concentration of labelled component): 2.6 µM | MIC (μM) against E. coli ATCC, combination of two compounds (E. coli ATCC 25922 [2]; KL-L9P + simvastatin, concentration of labelled component): 1.3 µM | MIC (E. coli ATCC 25922 [2]; Tables 19-23, read-out: MIC (μM) against E. coli ATCC, 1 compound alone): 15 µM | concentration killing E. coli in combination KL-L9P/colistin/linezolid (E. coli ATCC 25922 [2]; concentration of labelled component): 1 µM | FICI of peptide with colistin (E. coli ATCC 25922 [2]): 0.26 | FICI of peptide with colistin and linezolid (E. coli ATCC 25922 [2]; labelled peptide + colistin + linezolid): 0.28 | FICI of peptide with linezolid (E. coli ATCC 25922 [2]): 0.40 | FICI of peptide with simvastatin (E. coli ATCC 25922 [2]; labelled peptide + simvastatin): 0.18 | MIC of combination (μM): peptide (E. coli ATCC 25922 [2]; peptide concentration in combination with colistin): 2.6 µM | NPN fluorescence: touching/loosening the outer membrane (E. coli [5]): better effect of loosening the outer membrane than colistin | SYTOX Green DNA staining: ability to degrade or penetrate the inner wall (E. coli [6]): did not stain DNA | confocal image: membrane leakage / distribution of TAMRA-labeled peptide (E. coli NDm-1): distributed around the thin peri-cytoplasmic membrane | MIC (μM) against E. coli ATCC 25922, Peptide alone (E. coli ATCC 25922 [7]; Table 4): 15 µM | FICI Against E. coli, Colistin & 1/2 MIC peptide (E. coli ATCC 25922 [7]; Table 13, Lys-Ala scanning library): 0.58 | FICI Against E. coli, Colistin & 1/2 MIC peptide (E. coli ATCC 25922 [7]; Table 15, Leu-Ala scanning): 0.74 | FICI Against E. coli, Colistin & 1/4 MIC peptide (E. coli ATCC 25922 [7]; Table 15, Leu-Ala scanning): 0.55

LKKLLKLPKKLLKL [LK-L8P]
MIC [μM] Against E. coli [1]: 10 µM | MIC [μM] Against S. aureus [4]: >40 µM | extent to which the mutated peptides entered Gram-negative bacteria (order) (E. coli [8]; TAMRA-labeled, FIG. 1): P>>N=D>Q=E | portion of the peptide that entered Gram-negative bacteria (E. coli [8]; peptide about 2.5 microM): about 60% | penetration of eukaryotic cells (MDA MB231 cells): did not penetrate eukaryotic cells | entry into Gram-positive bacteria (Gram-positive bacteria [9]): did not enter Gram-positive bacteria | Fractional Inhibitory Concentration Index (FICI), Colistin & 1 μM peptide (E. coli ATCC 25922 [7]; Table 4): 0.83, Synergism | MIC (μM) against E. coli ATCC 25922, Peptide alone (E. coli ATCC 25922 [7]; Table 4): 3 µM

— patent US20180339016A1 (priority 2015, published 2018)
